From patent US20100273876A1, “ANTIBACTERIAL FORMULATION COMPRISING A DIALKYL SULPHOSUCCINATE AND A CARBANILIDE ANTIBACTERIAL AGENT” (priority 2007, published 2010)

Assays:
C. striatum NCTC 764 = experiment: MIC assay, liquid medium; type: cell-based, Corynebacterium striatum
Protocol: Several Corynebacterium test species were also used in this study, namely C. mucifaciens ATCC 700355, C. striatum NCTC 764, C. xerosis NCTC 11861 and C. jeikeium NCTC 11915. These Gram-positive pathogens are closely related to organisms (aerobic diphtheroids of the genus Corynebacterium) that cause body odour. C. mucifaciens and C. striatum were cultured and maintained on Mueller-Hinton Medium (agar and broth) and were incubated aerobically at 37° C. for 24 hours. C. xerosis and C. jeikeium were cultured and maintained on Mueller-Hinton Medium containing 5% (v/v) lysed horse blood (agar and broth) and were incubated aerobically at 37° C. for 72 hours.
This is a standard international method for quantitatively assessing the antimicrobial activity of a compound in a liquid medium. The method used a sterile 96-well microtitre plate, capable of holding about 200 μl of liquid per well. […]
The wells were inoculated with a liquid suspension of freshly grown micro-organism and incubated under the conditions described above. […] The MIC value was recorded as the lowest concentration of test compound required to inhibit microbial growth, ie, the lowest concentration for which the liquid in the well remained clear. […]

P. acnes PRP-026 = experiment: Agar dilution MIC assay; type: cell-based, Propionibacterium acnes; conditions: P. acnes PRP-026 (MLS)
Protocol: (§1) The propionibacteria were cultured and maintained on Wilkins-Chalgren Anaerobe Medium (agar and broth) at pH 6.0; all cultures were incubated anaerobically at 37° C. for 72 hours.
(§2) This is a standard international method for quantitatively assessing the antimicrobial activity of a compound in a solid medium. The test compound was prepared to 40× the highest concentration required (eg, 10 mg/ml for a final concentration of 250 μg/ml) and a series of doubling dilutions were performed in a suitable solvent. A set amount of these antimicrobial stock solutions was then added to molten agar medium (ca. 55° C.), mixed thoroughly, poured into sterile Petri dishes and allowed to cool/set.
(§3) A Multipoint™ Inoculator (AQS Manufacturing Ltd, UK) was used to inoculate the plates by spotting the inocula onto the surface of the agar, delivering approximately 1 to 2 μl per spot (yielding 10^5 CFU(colony forming units) per spot).
(§4) The plate(s) were then incubated under the conditions described above, following which they were examined visually for signs of bacterial growth. The MIC value was ascertained when there was a marked reduction in, or total loss of, growth on the test plate at the lowest concentration as compared to that of the growth on the control plate.
(§5) The assays were conducted in duplicate and included a positive control (culture medium, diluting solvent and inoculum).

P. acnes PRP-068 = experiment: Agar dilution MIC assay; type: cell-based, Propionibacterium acnes; conditions: P. acnes PRP-068 (Ery)
Protocol: as §1, §2, §3, §4, §5

P. acnes PRP-023 = experiment: Agar dilution MIC assay; type: cell-based, Propionibacterium acnes; conditions: P. acnes PRP-023 (MLSK)
Protocol: as §1, §2, §3, §4, §5

[1] = test system: Por. gingivalis NCTC 11834; experiment: MIC assay, liquid medium; type: cell-based, Porphyromonas gingivalis
Protocol: The P. gingivalis strains were cultured and maintained on Wilkins-Chalgren Anaerobe Medium (agar and broth) at pH 7.0; all cultures were incubated anaerobically at 37° C. for 5-7 days.
(§6) This is a standard international method for quantitatively assessing the antimicrobial activity of a compound in a liquid medium. The method used a sterile 96-well microtitre plate, capable of holding about 200 μl of liquid per well. The wells contained liquid culture medium and ranges of decreasing concentrations of the relevant test compound in doubling dilutions (eg, 1000, 500, 250, 125 . . . μg/ml, etc. down to 0.49 μg/ml). The culture media were as described above.
(§7) The wells were inoculated with a liquid suspension of freshly grown micro-organism and incubated under the conditions described above. After incubation, the microtitre plate was examined visually (with the aid of a light box) for cloudiness in each well, which would indicate microbial growth. The MIC value was recorded as the lowest concentration of test compound required to inhibit microbial growth, ie, the lowest concentration for which the liquid in the well remained clear.
(§8) The assays included both negative (culture medium with no micro-organisms) and positive (culture medium plus diluting solvent plus micro-organism) controls.

Por. gingivalis 381 = experiment: Biofilm disruption assay on hydroxyapatite discs; type: cell-based, Porphyromonas gingivalis; conditions: Por. gingivalis 381 biofilm, DOSS 0.5% (w/v), CHX 0.2% (w/v)
Protocol: This assay was designed to determine quantitatively the relative potency of a test compound to disrupt (effectively kill) biofilms formed by a test organism on hydroxyapatite (HA) discs.
Biofilms were formed on sterile dense ceramic HA discs 7 mm diameter x 1.8 mm thick (Clarkson Chromatography) by placing the discs in the appropriate liquid media (as described above) inoculated with the test organism (0.5×10^8 cfu/ml). The HA discs were then incubated at 37° C. for ˜48 h in a 5% CO2 atmosphere (for Strep. mutans ATCC 25175) or ˜96 h under anaerobic conditions (for Por. gingivalis 381). Following the incubation period the supernatant was removed from the wells containing the HA discs and the discs were washed×3 with fresh media to ensure all planktonic cells were removed. The HA discs were then transferred to sterile bijoux bottles containing 1 ml of phosphate buffered saline (PBS) plus test compound(s) at the required concentration. After a set time period (usually 2 and/or 5 min), the HA disc was transferred to another sterile bijoux containing 1 ml of fresh growth media. Adherent cells were then harvested by vigorous vortexing for 2 minutes. A sample was then taken, serially diluted 10-fold in fresh growth media and inoculated onto agar plates in triplicate. Untreated HA discs, and HA discs added to PBS containing only the solvents used to dissolve the test compound(s), acted as controls.
The plates were then incubated as described above and subsequently examined visually for growth. Colonies were counted at an appropriate serial dilution (5-50 individual colonies visible) with the aid of a colony counter. These measurements were then converted to numbers of colony forming units (cfu), using the formula: cfu/ml=number of colonies×serial dilution factor×100 (as only a 10 μl sample was taken).
These cfu values were then converted into log10 values and plotted graphically against time of sample removal.
At each time point, samples were assessed in triplicate; the final cfu/ml value was an average (mean) of the three readings.
Biofilm disruption assays, as described above, were carried out using DOSS as the test compound and chlorhexidine (CHX) as a positive control. For these experiments, the DOSS was tested at 0.5% w/v against Por. gingivalis and 1% w/v against Strep. mutans. The ahlorhexidine was tested at a concentration of 0.2% w/v against both micro-organisms. The DOSS was dissolved in ethanol and the chlorhexidine in distilled water. All the experiments were conducted in triplicate.

[2] = test system: Por. gingivalis NCTC 11834; experiment: MBC assay; type: cell-based, Porphyromonas gingivalis
Protocol: The P. gingivalis strains were cultured and maintained on Wilkins-Chalgren Anaerobe Medium (agar and broth) at pH 7.0; all cultures were incubated anaerobically at 37° C. for 5-7 days. This assay, normally carried out after an MIC assay, determines the rnininiurn concentration of a compound that is lethal to the micro-organism being tested. […] These samples were then individually sub-cultured on antibiotic-free agar medium, under the incubation conditions described above. Following incubation they were examined visually for microbial growth.

Strep. mutans ATCC 25175 = experiment: MIC assay, liquid medium; type: cell-based, Streptococcus mutans
Protocol: The S. mutans was cultured and maintained on Wilkins-Chalgren Anaerobe Medium (agar and broth) at pH 7.0 supplemented with 1 g/L glucose; all cultures were incubated at 37° C. for 48 h in an atmosphere containing 5% CO2.
as §6, §7, §8

Substance dioctyl sodium sulphosuccinate [DOSS] has an MIC (C. striatum NCTC 764) of 62.5 µg/mL, an MIC (P. acnes PRP-026) of 15.6 µg/mL and an MIC (P. acnes PRP-068) of 15.6 µg/mL. The MIC (P. acnes PRP-023) was 15.6 µg/mL, the MIC [1] was under 0.49 µg/mL and the Viable cell counts (Por. gingivalis 381; 0 min) was 7.53 log10 cfu/ml. It also gave a Viable cell counts (Por. gingivalis 381; 2 min) of 5.08 log10 cfu/ml, a Viable cell counts (Por. gingivalis 381; 5 min) of 3.34 log10 cfu/ml and an MBC [2] of under 0.49 µg/mL. For the same substance, the MIC (Strep. mutans ATCC 25175) was 15.6 µg/mL.
